Legend:
PARP1 = PARP1 (Homo sapiens, UniProt P09874); assay: PARP1 enzymatic inhibition assay (ELISA, chemiluminescence); assay type: biochemical; details: for IC50: mean ± SD of at least two independent experiments in duplicate; for inhibition at 0.5 µM: duplicate, average, read-out: PARP1 Inhibition Rate
MDA-MB-231 = assay: MTT cell viability assay, MDA-MB-231; assay type: cell-based; details: Homo sapiens, 72 h, mean ± SEM, read-out: Cytotoxicity IC50 MDA-MB-231
Protocol: (§1) MDA-MB-468, MDA-MB-231, MCF-7, and MCF-10A cell lines were obtained from the National Collection of Authenticated Cell Culture, China. The cells were cultured in DMEM medium supplemented with 10% FBS and 1% penicillin/streptomycin, and maintained at 37 °C in a humidified atmosphere with 5% CO2.
(§2) Cell viability was assessed using the MTT assay. Cells were seeded at a density of 3 × 10^3 cells per well in a 96-well plate and treated with various concentrations (0.05, 0.2, 0.8, 3.2, 6.4, 12.8 µM) of the compounds for 72 h. After incubation, 100 µL of MTT solution (0.5 mg/mL) was added to each well and further incubated for 4 h. The resulting formazan crystals were dissolved in 150 µL of DMSO, and the absorbance was measured at 570 nm using a microplate reader.

MCF-10A = assay: MTT cell viability assay, MCF-10A normal breast epithelial cells; assay type: cell-based, human; details: Homo sapiens, 72 h; 3.0 μM; MCF-10A; mean ± SEM; read-out: Cell Survival Rate
Protocol: as §1, §2

MDA-MB-468 = assay: MTT cell viability assay, MDA-MB-468; assay type: cell-based; details: Homo sapiens, 72 h, mean ± SEM, read-out: Cytotoxicity IC50 MDA-MB-468
Protocol: as §1, §2

MCF-7 = assay: MTT cell viability assay, MCF-7; assay type: cell-based; details: Homo sapiens, MCF7, 72 h, mean ± SEM, read-out: Cytotoxicity IC50 MCF-7
Protocol: as §1, §2

NAMPT = NAMPT (Homo sapiens, UniProt P43490); assay: NAMPT enzymatic inhibition assay (fluorescence, coupled NMNAT/alcohol dehydrogenase); assay type: biochemical; details: for inhibition at 0.1 µM / NAMPT Inhibition Rate: duplicate, average, 0.1 μM; for inhibition at 0.1 µM: read-out: NAMPT Inhibition Rate
NAMPT, sequence (P43490 whole entry): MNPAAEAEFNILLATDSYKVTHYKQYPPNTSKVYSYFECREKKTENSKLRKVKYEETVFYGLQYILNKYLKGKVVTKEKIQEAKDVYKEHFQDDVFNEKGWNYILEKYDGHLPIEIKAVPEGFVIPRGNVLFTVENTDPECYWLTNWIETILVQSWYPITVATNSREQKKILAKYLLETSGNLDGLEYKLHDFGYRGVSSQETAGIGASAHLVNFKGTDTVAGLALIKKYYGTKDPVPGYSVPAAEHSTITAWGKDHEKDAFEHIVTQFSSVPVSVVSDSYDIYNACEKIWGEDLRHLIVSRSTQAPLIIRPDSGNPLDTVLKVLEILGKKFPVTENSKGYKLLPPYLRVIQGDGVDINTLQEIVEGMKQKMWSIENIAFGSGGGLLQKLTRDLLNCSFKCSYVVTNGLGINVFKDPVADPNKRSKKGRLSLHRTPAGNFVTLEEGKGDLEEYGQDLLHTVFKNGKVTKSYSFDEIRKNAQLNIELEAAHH

PARP1, sequence (P09874 whole entry): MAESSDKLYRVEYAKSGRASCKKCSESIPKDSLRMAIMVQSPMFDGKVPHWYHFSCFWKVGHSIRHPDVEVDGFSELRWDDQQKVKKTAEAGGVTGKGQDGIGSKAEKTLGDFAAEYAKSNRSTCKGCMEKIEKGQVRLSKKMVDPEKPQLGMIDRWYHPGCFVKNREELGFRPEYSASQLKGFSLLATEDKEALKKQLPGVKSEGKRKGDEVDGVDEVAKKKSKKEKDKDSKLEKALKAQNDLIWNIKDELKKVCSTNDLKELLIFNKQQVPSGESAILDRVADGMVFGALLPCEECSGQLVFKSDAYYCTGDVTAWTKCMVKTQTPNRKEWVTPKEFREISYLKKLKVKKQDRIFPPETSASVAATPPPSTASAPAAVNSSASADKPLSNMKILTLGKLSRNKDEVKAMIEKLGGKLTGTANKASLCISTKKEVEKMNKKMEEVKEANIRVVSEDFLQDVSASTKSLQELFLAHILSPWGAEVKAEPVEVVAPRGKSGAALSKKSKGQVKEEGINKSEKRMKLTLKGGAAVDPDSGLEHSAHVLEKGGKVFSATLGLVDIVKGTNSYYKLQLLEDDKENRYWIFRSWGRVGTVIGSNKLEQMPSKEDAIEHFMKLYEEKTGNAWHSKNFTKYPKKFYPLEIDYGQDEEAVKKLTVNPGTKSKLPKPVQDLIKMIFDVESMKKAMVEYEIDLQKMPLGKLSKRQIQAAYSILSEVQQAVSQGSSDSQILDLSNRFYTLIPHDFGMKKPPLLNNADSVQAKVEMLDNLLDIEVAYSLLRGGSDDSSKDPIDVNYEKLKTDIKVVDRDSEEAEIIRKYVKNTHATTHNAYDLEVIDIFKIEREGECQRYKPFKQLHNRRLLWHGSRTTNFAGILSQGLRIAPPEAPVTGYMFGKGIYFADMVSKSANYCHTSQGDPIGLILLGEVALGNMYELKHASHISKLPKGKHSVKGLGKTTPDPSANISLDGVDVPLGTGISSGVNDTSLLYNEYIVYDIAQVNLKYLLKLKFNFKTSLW

IC50 (PARP1) [µM] | fold decrease in inhibitory capacity against PARP1 compared to Olaparib (PARP1; ratio of IC50 values) [fold] | inhibition at 0.1 µM (NAMPT) [%] | melting point [°C] | IC50 (NAMPT; mean ± SD of at least two independent experiments in duplicate) [µM] | inhibition at 0.5 µM (PARP1) [%] | NAMPT Inhibition Rate (NAMPT) [%] | Compound | IC50 (MDA-MB-231) [µM] | viability at 3 µM (MCF-10A) [%] | IC50 (MDA-MB-468) [µM] | IC50 (MCF-7) [µM]
0.009 ± 0.002 | 4.5 | 83 | 189 to 190 | – | – | – | O=C(c1cc(Cc2n[nH]c(=O)c3ccccc23)ccc1F)N1CCN(S(=O)(=O)c2ccc(NC(=S)NCc3cccnc3)cc2)CC1 [DDY01, 1-(4-((4-(2-Fluoro-5-((4-oxo-3,4-dihydrophthalazin-1-yl)methyl)benzoyl)piperazin-1-yl)sulfonyl)phenyl)-3-(pyridin-3-ylmethyl)thiourea] | 6.17 ± 0.27 | 67.1 ± 1.73 | 5.09 ± 0.09 | 8.48 ± 0.18
0.025 ± 0.007 | – | – | 120 to 121 | 0.055 ± 0.019 | – | – | O=C(NCc1cccnc1)Nc1ccc(S(=O)(=O)N2CCN(C(=O)CCc3nc4ccccc4c(=O)[nH]3)CC2)cc1 [DDY03, 1-(4-((4-(3-(4-Oxo-3,4-dihydroquinazolin-2-yl)propanoyl)piperazin-1-yl)sulfonyl)phenyl)-3-(pyridin-3-ylmethyl)urea] | 10.9 ± 0.68 | 80.7 ± 1.5 | 8.17 ± 0.31 | 11.2 ± 0.79
– | – | 84 to 86 | 125 to 126 | – | 70 | 84 | NC(=O)c1ccccc1OCc1ccc(F)c(C(=O)N2CCN(S(=O)(=O)c3ccc(NC(=S)NCc4cccnc4)cc3)CC2)c1 [DDY04, 2-((4-Fluoro-3-(4-((4-(3-(pyridin-3-ylmethyl)thioureido)phenyl)sulfonyl)piperazine-1-carbonyl)benzyl)oxy)benzamide] | 13.5 ± 0.66 | 98.4 ± 1.74 | 14.1 ± 0.3 | 13.4 ± 2.41
– | – | 84 to 86 | 119 to 120 | – | – | 86 | NC(=O)c1ccccc1OCc1ccc(F)c(C(=O)N2CCN(S(=O)(=O)c3ccc(NC(=O)NCc4cccnc4)cc3)CC2)c1 [DDY05, 2-((4-Fluoro-3-(4-((4-(3-(pyridin-3-ylmethyl)ureido)phenyl)sulfonyl)piperazine-1-carbonyl)benzyl)oxy)benzamide] | 10.2 ± 0.29 | 88.7 ± 2.41 | 8.02 ± 0.74 | > 20
– | – | 48 | – | – | 89 | – | NC(=O)c1ccccc1OCc1ccc(F)c(C(=O)N2CCN(S(=O)(=O)Cc3ccc(NC(=O)NCc4cccnc4)cc3)CC2)c1 [DDY06, 2-((4-Fluoro-3-(4-((4-(3-(pyridin-3-ylmethyl)ureido)benzyl)sulfonyl)piperazine-1-carbonyl)benzyl)oxy)benzamide] | 15.4 ± 2.15 | 69.5 ± 2.56 | 17.2 ± 1.57 | 7.95 ± 0.34
– | – | 84 | 122 to 123 | – | 92 | – | NC(=O)c1cc(F)ccc1OCc1ccc(F)c(C(=O)N2CCN(S(=O)(=O)c3ccc(NC(=O)NCc4cccnc4)cc3)CC2)c1 [DDY07, 5-Fluoro-2-((4-fluoro-3-(4-((4-(3-(pyridin-3-ylmethyl)ureido)phenyl)sulfonyl)piperazine-1-carbonyl)benzyl)oxy)benzamide] | 8.1 ± 0.71 | 70.73 ± 0.07 | 7.43 ± 0.23 | 13.5 ± 0.16
– | – | 80 | 202 to 203 | – | 69 | – | NC(=O)c1ccccc1OCc1cccc(C(=O)N2CCN(S(=O)(=O)c3ccc(NC(=O)NCc4cccnc4)cc3)CC2)c1 [DDY08, 2-((3-(4-((4-(3-(Pyridin-3-ylmethyl)ureido)phenyl)sulfonyl)piperazine-1-carbonyl)benzyl)oxy)benzamide] | 11.1 ± 0.19 | 72.6 ± 3.46 | 12.9 ± 1.69 | 9.18 ± 0.44
– | – | 86 | 147 to 148 | – | 78 | – | NC(=O)c1cc(F)ccc1OCc1cccc(C(=O)N2CCN(S(=O)(=O)c3ccc(NC(=O)NCc4cccnc4)cc3)CC2)c1 [DDY09, 5-Fluoro-2-((3-(4-((4-(3-(pyridin-3-ylmethyl)ureido)phenyl)sulfonyl)piperazine-1-carbonyl)benzyl)oxy)benzamide] | 8.7 ± 0.24 | 66.9 ± 2.45 | 6.98 ± 0.57 | 11 ± 0.82

From PMC11206297, “Targeting NAD Metabolism: Rational Design, Synthesis and In Vitro Evaluation of NAMPT/PARP1 Dual-Target Inhibitors as Anti-Breast Cancer Agents” (Molecules, 2024)
